According to patent US9724347B2, “1-pyrazolyl-3-(4-((2-anilinopyrimidin-4-yl)oxy)napththalen-1-yl) ureas as P38 MAP knase inhibitors” (Respivert Ltd., priority 2011, dated 2017):

Tests used:
GSK3α = GSK3α (Homo sapiens (Human), UniProt P49840); assay: Kinase binding, active site-directed competition binding (DiscoverX)
d-U937 cells = assay: Cell viability: MTT assay; type: cell-based, human; conditions: 1 μg/mL
In short: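 Differentiated U937 cells exposed to compound at 1 or 10 μg/mL final, either 4 h in 5% FCS RPMI1640 or 24 h in 10% FCS RPMI1640. After medium replacement, MTT added 1 h, formazan dissolved in DMSO, A550 read. % viability loss vs 0.5% DMSO vehicle; apparent viability gain shown as negative %.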

PBMC cells = assay: Cell mitosis assay; type: cell-based, human
Experimental: Peripheral blood mononucleocytes (PBMCs) from healthy subjects were separated from whole blood (Quintiles, London, UK) using a density gradient (Histopaque®-1077, Sigma-Aldrich, Poole, UK). The PBMCs (3 million cells per sample) were subsequently treated with 2% PHA (Sigma-Aldrich, Poole, UK) for 48 hr, followed by a 20 hr exposure to varying concentrations of test compounds. At 2 hr before collection, PBMCs were treated with demecolcine (0.1 μg/mL; Invitrogen, Paisley, UK,) to arrest cells in metaphase. To observe mitotic cells, PBMCs were permeabilised and fixed by adding Intraprep (50 μL; Beckman Coulter, France), and stained with anti-phospho-histone 3 ([…]; #9701; Cell Signalling, Danvers, Mass.) and propidium iodide (1 mg/mL; Sigma-Aldrich, Poole, UK,) as previously described (Muehlbauer P. A. and Schuler M. J., Mutation Research, 2003, 537:117-130). Fluorescence was observed using an ATTUNE flow cytometer (Invitrogen, Paisley, UK), gating for lymphocytes.

Balb/c mice = assay: LPS-induced neutrophil accumulation in mice; type: in vivo
Experimental: […] At T=0, mice were placed into an exposure chamber and exposed to LPS (7.0 mL, 0.5 mg/mL solution in PBS) for 30 min). After a further 8 hr the animals were anesthetized, their tracheas cannulated and BALF extracted by infusing and then withdrawing from their lungs 1.0 mL of PBS via the tracheal catheter. Total and differential white cell counts in the BALF samples were measured using a Neubaur haemocytometer. Cytospin smears of the BALF samples were prepared by centrifugation at 200 rpm for 5 min at RT and stained using a DiffQuik stain system (Dade Behring). Cells were counted using oil immersion microscopy. Data for neutrophil numbers in BAL are shown as mean±S.E.M. (standard error of the mean). The percentage inhibition of neutrophil accumulation was calculated for each treatment relative to vehicle treatment.

A/J mice = assay: Cigarette smoke model; type: in vivo; conditions: for CXCL1 in BALF, % inhibition / Cell numbers in BALF, Macrophage / Cell numbers in BALF, Macrophage, % inhibition / Cell numbers in BALF, Neutrophil / Cell numbers in BALF, Neutrophil, % inhibition: tobacco smoke
Experimental: A/J mice (males, 5 weeks old) were exposed to cigarette smoke (4% cigarette smoke, diluted with air) for 30 min/day for 11 days using a Tobacco Smoke Inhalation Experiment System for small animals (Model SIS-CS; Sibata Scientific Technology, Tokyo, Japan). Test substances were administered intra-nasally (35 μL of solution in 50% DMSO/PBS) once daily for 3 days after the final cigarette smoke exposure. At 12 hr after the last dosing, each of the animals was anesthetized, the trachea cannulated and bronchoalveolar lavage fluid (BALF) was collected. The numbers of alveolar macrophages and neutrophils were determined by FACS analysis (EPICS® ALTRA II, Beckman Coulter, Inc., Fullerton, Calif., USA) using anti-mouse MOMA2 antibody (macrophage) or anti-mouse 7/4 antibody (neutrophil). BALF was centrifuged and the supernatant was collected. The level of keratinocyte chemoattractant (KC; CXCL1) in BALF was quantitated using a Quentikine® mouse KC ELISA kit (R&D systems, Inc., Minneapolis, Minn., USA).

p38MAPKγ (MAPK12) = p38MAPKγ (MAPK12) (Homo sapiens (Human), UniProt P53778); assay: p38 MAPKγ enzyme inhibition (FRET, Z-LYTE); type: biochemical
In short: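 Z-LYTE FRET kinase format on donor/acceptor-labeled synthetic peptide; protease development 1 hr cleaves only non-phosphorylated peptide. Phosphorylation derived from coumarin/fluorescein emission ratio, low ratio indicating high phosphorylation.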

[1] = target: p38 MAPKα isoform (MAPK14) (Homo sapiens (Human), UniProt Q16539); assay: p38 MAPKα enzyme inhibition (FRET, Z-LYTE); type: biochemical
HRV16 = HRV16 induced CPE in MRC5 cells; type: cell-based, human rhinovirus; conditions: at 0.04 μg/mL
Experimental: The supernatants were aspirated, and then fresh media added followed by incubation for 4 days. Where appropriate, cells were pre-incubated with compound or DMSO for 2 hr, and the compounds and DMSO added again after washout of the virus.
The percentage inhibition for each well was calculated. The IC50 value was calculated from the concentration-response curve generated by the serial dilutions of the test compounds.

[2] = test system: HRV IL-8 release (BEAS2B); assay: Rhinovirus-induced IL-8 release in BEAS2B cells; type: cell-based, human; conditions: at 0.04 μg/mL
Experimental: Human rhinovirus RV16 was obtained from the American Type Culture Collection (Manassas, Va.). Viral stocks were generated by infecting Hela cells with HRV until 80% of the cells were cytopathic.
BEAS2B cells were infected with HRV at an MOI of 5 and incubated for 2 hr at 33° C. with gentle shaking for to promote absorption. The cells were then washed with PBS, fresh media added and the cells were incubated for a further 72 hr. The supernatant was collected for assay of IL-8 concentrations using a Duoset ELISA development kit (R&D systems, Minneapolis, Minn.).
The level of cell surface ICAM-1 expression was determined by cell-based ELISA. At 72 hr after infection, cells were fixed with 4% formaldehyde in PBS. After quenching endogenous peroxidase by adding 0.1% sodium azide and 1% hydrogen peroxide, wells were washed with wash-buffer (0.05% Tween in PBS: PBS-Tween). […] The ICAM-1 signal was detected by adding substrate and reading at 450 nm with a reference wavelength of 655 nm using a spectrophotometer. The wells were then washed with PBS-Tween and total cell numbers in each well were determined by reading absorbance at 595 nm after Crystal Violet staining and elution by 1% SDS solution. The measured OD450-655 readings were corrected for cell number by dividing with the OD595 reading in each well. […]

GSK 3α enzyme isoform = GSK 3α enzyme isoform (Homo sapiens (Human), UniProt P49840); assay: GSK 3α enzyme inhibition (FRET, Z-LYTE); type: biochemical; conditions: read-out: IC50 Values for Enzyme Inhibition GSK3α
In short: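 Human GSK3α (500 ng/mL stock) was preincubated 2 h at RT with compound (stocks 4, 0.4, 0.04 or 0.004 μg/mL), then given FRET peptide (8 μM stock) and ATP (40 μM stock) for 1 h. After 1 h protease development, the coumarin/fluorescein emission ratio gave phosphorylation level.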

[3] = test system: ICAM-1 expression in BEAS2B cells; assay: Poly I:C-induced ICAM-1 expression in BEAS2B cells; type: cell-based, human; conditions: Homo sapiens, BEAS-2B, read-out: PolyIC/ICAM1 IC50 (BEAS2B)
In short: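 BEAS2B human bronchial epithelial cells pre-incubated 2 h with compound, then transfected with 1 μg/mL poly I:C plus Oligofectamine. After 18 h, surface ICAM-1 measured by cell-based ELISA (OD450–655), normalised to crystal violet cell count (OD595). Inhibition calculated against vehicle control.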

Chain of p38MAPKγ (MAPK12) (P53778 whole entry): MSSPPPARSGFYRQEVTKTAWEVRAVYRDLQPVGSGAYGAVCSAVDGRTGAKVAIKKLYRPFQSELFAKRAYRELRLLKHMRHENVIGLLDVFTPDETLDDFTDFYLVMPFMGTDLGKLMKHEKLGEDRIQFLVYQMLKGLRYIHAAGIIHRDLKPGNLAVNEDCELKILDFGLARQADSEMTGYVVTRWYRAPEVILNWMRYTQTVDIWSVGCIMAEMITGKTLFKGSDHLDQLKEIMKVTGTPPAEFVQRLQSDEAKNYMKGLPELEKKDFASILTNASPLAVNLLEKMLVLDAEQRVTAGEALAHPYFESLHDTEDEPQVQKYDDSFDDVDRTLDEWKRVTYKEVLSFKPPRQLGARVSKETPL
Chain of GSK3α (P49840 whole entry): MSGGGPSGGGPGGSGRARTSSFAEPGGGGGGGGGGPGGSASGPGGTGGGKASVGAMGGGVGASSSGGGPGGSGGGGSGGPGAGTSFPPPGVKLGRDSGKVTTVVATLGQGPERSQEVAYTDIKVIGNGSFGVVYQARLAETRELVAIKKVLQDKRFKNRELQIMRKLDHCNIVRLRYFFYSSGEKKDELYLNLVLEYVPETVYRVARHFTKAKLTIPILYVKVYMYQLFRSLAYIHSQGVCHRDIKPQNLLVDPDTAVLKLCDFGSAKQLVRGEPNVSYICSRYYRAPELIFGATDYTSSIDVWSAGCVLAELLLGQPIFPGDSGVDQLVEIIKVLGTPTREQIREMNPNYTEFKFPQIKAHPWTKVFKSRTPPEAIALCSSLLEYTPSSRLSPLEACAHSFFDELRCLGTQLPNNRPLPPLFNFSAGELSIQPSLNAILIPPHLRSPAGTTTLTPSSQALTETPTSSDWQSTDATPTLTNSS
Chain of GSK 3α enzyme isoform (P49840 whole entry, canonical isoform): as the sequence (P49840 whole entry) above
Chain of p38 MAPKα isoform (MAPK14) (Q16539 whole entry, canonical isoform): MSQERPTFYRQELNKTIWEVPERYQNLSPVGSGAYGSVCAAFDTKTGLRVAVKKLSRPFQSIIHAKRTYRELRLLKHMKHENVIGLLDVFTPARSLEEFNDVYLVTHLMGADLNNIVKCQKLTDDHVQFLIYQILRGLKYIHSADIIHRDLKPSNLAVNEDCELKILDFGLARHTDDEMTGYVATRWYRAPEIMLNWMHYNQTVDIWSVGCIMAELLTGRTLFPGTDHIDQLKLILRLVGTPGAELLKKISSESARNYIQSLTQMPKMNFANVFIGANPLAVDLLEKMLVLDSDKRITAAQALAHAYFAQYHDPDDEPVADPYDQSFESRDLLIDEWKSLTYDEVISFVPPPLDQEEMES

## Cc1ccc(-n2nc(C(C)(C)C)cc2NC(=O)Nc2ccc(Oc3ccnc(Nc4ccccc4)n3)c3ccccc23)cc1 [Example 1, 1-(3-(tert-Butyl)-1-(p-tolyl)-1H-pyrazol-5-yl)-3-(4-(2-(phenylamino)pyrimidin-4-yloxy)naphthalen-1-yl)urea]
GSK3α
  inhibition of binding against GSK3α (in words): without significant effect
d-U937 cells; 4 h
  MTT Assay Cell viability at time point in d-U937 Cells: −ve (−ve and +ve indicate the value is below and above respectively, the no significant effect threshold defined as 30% inhibition at 1 μg/mL at the time point indicated)
d-U937 cells; 24 h
  MTT Assay Cell viability at time point in d-U937 Cells: −ve (−ve and +ve indicate the value is below and above respectively, the no significant effect threshold defined as 30% inhibition at 1 μg/mL at the time point indicated)
PBMC cells; 1 μg/mL
  Mitosis Assay % inhibition in PBMC Cells: 13.7%
PBMC cells; 5 μg/mL
  Mitosis Assay % inhibition in PBMC Cells: 31.3%
Balb/c mice; 0.05 mg/mL intra tracheal, pre-dose time 2 hr
  Neutrophil numbers in BALF, % inhibition: 18%
Balb/c mice; 0.2 mg/mL intra tracheal, pre-dose time 2 hr
  Neutrophil numbers in BALF, % inhibition: 48%
Balb/c mice; 1.0 mg/mL intra tracheal, pre-dose time 2 hr
  Neutrophil numbers in BALF, % inhibition: 77%
Balb/c mice; 1.0 mg/mL intra tracheal, pre-dose time 8 hr
  Neutrophil numbers in BALF, % inhibition: 48%
Balb/c mice; 1.0 mg/mL intra tracheal, pre-dose time 12 hr
  Neutrophil numbers in BALF, % inhibition: 4%
Balb/c mice; mice
  effect on LPS-induced neutrophil accumulation (in words): dose dependent inhibition
Balb/c mice; time course experiment, mice
  duration of action: long duration of action
A/J mice; 0.32 μg/mL intra-nasal
  CXCL1 in BALF, % inhibition: 0%
  Cell numbers in BALF, Macrophage: 13.3 ± 0.20 ×10^4/mL
  Cell numbers in BALF, Macrophage, % inhibition: 11%
  Cell numbers in BALF, Neutrophil: 12.4 ± 0.32 ×10^4/mL
  Cell numbers in BALF, Neutrophil, % inhibition: 12%
A/J mice; 1.6 μg/mL intra-nasal
  CXCL1 in BALF, % inhibition: 26%
  Cell numbers in BALF, Macrophage: 11.6 ± 0.42 ×10^4/mL
  Cell numbers in BALF, Macrophage, % inhibition: 28%
  Cell numbers in BALF, Neutrophil: 10.5 ± 0.06 ×10^4/mL
  Cell numbers in BALF, Neutrophil, % inhibition: 29%
A/J mice; 8.0 μg/mL intra-nasal
  CXCL1 in BALF, % inhibition: 41%
  Cell numbers in BALF, Macrophage: 10.1 ± 0.42 ×10^4/mL
  Cell numbers in BALF, Macrophage, % inhibition: 43%
  Cell numbers in BALF, Neutrophil: 9.1 ± 0.28 ×10^4/mL
  Cell numbers in BALF, Neutrophil, % inhibition: 41%
A/J mice; 40 μg/mL intra-nasal
  CXCL1 in BALF, % inhibition: 76%
  Cell numbers in BALF, Macrophage: 7.9 ± 0.20 ×10^4/mL
  Cell numbers in BALF, Macrophage, % inhibition: 64%
  Cell numbers in BALF, Neutrophil: 7.9 ± 0.34 ×10^4/mL
  Cell numbers in BALF, Neutrophil, % inhibition: 52%
A/J mice; mice
  cigarette smoke induced CXCL1 (KC) production in BALF (in words): inhibited
  macrophage accumulation in BALF induced by cigarette smoke (in words): dose-dependent inhibition
  neutrophil accumulation in BALF induced by cigarette smoke (in words): dose-dependent inhibition

## Cc1ccc(-n2nc(C(C)(C)C)cc2NC(=O)Nc2ccc(Oc3ccnc(Nc4ccccc4Cl)n3)c3ccccc23)cc1 [Example 6, 1-(3-(tert-butyl)-1-(p-tolyl)-1H-pyrazol-5-yl)-3-(4-((2-((2-chlorophenyl)amino)pyrimidin-4-yl)oxy)naphthalen-1-yl)urea]
p38MAPKγ (MAPK12)
  IC50: > 16200 nM
[1]
  IC50: 161 nM
HRV16
  HRV CPE (MRC5) % inhibition: 46%
d-U937 cells; 4 h
  MTT Assay Cell viability at time point in d-U937 Cells: −ve (−ve and +ve indicate the value is below and above respectively, the no significant effect threshold defined as 30% inhibition at 1 μg/mL at the time point indicated)
d-U937 cells; 24 h
  MTT Assay Cell viability at time point in d-U937 Cells: −ve (−ve and +ve indicate the value is below and above respectively, the no significant effect threshold defined as 30% inhibition at 1 μg/mL at the time point indicated)
[2]
  HRV IL-8 (BEAS2B) % inhibition: 77%
GSK 3α enzyme isoform
  IC50: > 16200 nM
[3]
  IC50: 56 nM
